{"source": "patent US9642821B2", "about": "“MiR-182 in the diagnosis and treatment of cancer” (Dana-Farber Cancer Institute, Inc., priority 2010, dated 2017)", "format_in_all_cases": "cell-based", "key": {"MDA-MB231 cells [1]": {"tested_on": "MDA-MB231 cells", "assay": "Single-cell gel electrophoresis (comet) assay after irradiation, MDA-MB231", "settings": "MDA-MB231, 18 h repair, vs control mimic", "protocol": "21NT cells (0.35×10^6 cells/well in 6 well tissue culture plate) were transfected with 100 nM control or miR-182 antagomir expression vector (Ambion, Austin, Tex.) whereas MDA-MB231 (0.35×10^6 cells/well on 6 well plate) were transfected with 10 nM control or miR-182 mimic expression vector (Ambion, Austin, Tex.) using Lipofectamine 2000. At day 3 after transfection, cells were irradiated (0, 2, 4 and 6 Gy) and allowed to recover for 18 hours prior to analysis. The single cell comet assays was carried out according manufacturer's instructions (Trevigen, Gaithersburg, Md.). Briefly, treated or untreated cells were collected, resuspended in ice cold PBS at 10^5 cells/ml, mixed with low-melting point agarose (1:10 ratio) and spread on frosted glass slides. After the agarose solidified, the slides were placed in lysis buffer and then in alkaline solutions. […] Nuclei were visualized using epifluorescent illumination on a Zeiss microscope and images analyzed with National Institutes of Health ImageJ software (rsbweb.nih.gov/ij/). DNA damage was quantified for 70-100 cells for each experimental condition by determining the DNA in the comet tail using the software Comet Score (TriTek, Sumerduck, Va.)."}, "[2]": {"tested_on": "BRCA1 3′UTR-luciferase reporter", "assay": "Luciferase reporter assay with BRCA1 3′UTR in HeLa cells", "protocol": "The wild type (WT) and mutated (M) miR-182 recognition elements of 3′UTR-BRCA1 were annealed (see below) and cloned in expression vector, pMIR-REPORT (Ambion, Austin, Tex.) downstream to Firefly Luciferase.\nHela cells were co-transfected in a 24 well tissue culture plate with 10 nM control mimic (Ambion, Austin, Tex.) or miR-182 mimic (Ambion, Austin, Tex.), 0.2 μg 3′UTR-BRCA1-WT or 3′UTR-BRCA1-M, and 0.2 μg Renilla luciferase in pRL-TK (Promega, Madison, Wis.) vector using lipofectamine 2000 as described in manufacture's manual. Cells were harvested on day 2 and the luciferase activity was assayed with the Dual-Luciferase Assay System (Promega, Madison, Wis.) and a Synergy HT microplate reader (BioTek, Winooski, Vt.) as described in manufacture's manual."}, "MDA-MB231 cells [3]": {"tested_on": "MDA-MB231 cells", "assay": "Clonogenic cell survival assay with PARP inhibitors, MDA-MB231", "settings": "MDA-MB231, 14 days, vs control mimic", "protocol": "Hela cells (0.35×10^6 cells/well), MDA-MB231 cells (0.4×10^6 cells/well), 21NT cells (0.5×10^6) were seeded overnight and transfected with 10 nM of miRNA mimics or antagomirs (Ambion, Austin, Tex.) using Lipofectamine 2000. In rescue experiments, miR-182 or control mimics were co-transfected with 1 μg/ml BRCA1 (pcDNA3.1 vector). After 2 days, 1000 cells in 4 ml DMEM media (10% FBS v/v) were seeded on 6 cm tissue culture dishes in four replicates and allowed to attach overnight before treatment. PARP inhibitors (4-amino-1,8-naphthalimide (Sigma, St. Louis, Mo.) or ABT-888 (ChemieTek, Indianapolis, Ind.) in DMSO) were added to the growth media at indicated concentrations. Irradiated cells as well as cells in the presence of PARP inhibitor were allowed to form colonies for 14 days. For evaluation, formed colonies were stained with crystal violet and surviving colonies containing >50 cells were counted. Plating efficiency was 30-50%."}}, "note": "Entries after “also recorded” stand apart in the source; their conditions may differ."}
{"substance": "miR-182: microRNA with sequence 5′ UUUGGCAAUGGUAGAACUCACACU 3′ (SEQ ID NO:1); given as mimic (Ambion) or expression vector (UUUGGCAAUGGUAGAACUCACACU; listed as RNA, chemistry not given here; listed as Homo sapiens)", "values": [{"measurement": "residual DNA damage (unrepaired DSBs) after irradiation", "setting": "MDA-MB231 cells [1]", "result": "significantly higher residual DNA damage"}, {"measurement": "residual DNA damage (unrepaired DSBs) after irradiation", "setting": "MDA-MB231 cells [1]; listed as 182 mimic", "result": "significantly altered"}, {"measurement": "effect of miR-182 on luciferase with mutated miR-182 recognition sites (BRCA1-M reporter)", "setting": "[2]", "result": "significantly reduced the effect; also recorded: rescued this suppression"}, {"measurement": "reduction of luciferase activity, wildtype BRCA1-reporter", "setting": "[2]; 10 nM mimic, vs control mimic", "result": "more than 2 fold"}, {"measurement": "luciferase activity of BRCA1-WT reporter", "setting": "[2]; normalized to Renilla, p<0.001", "result": "suppressed luciferase activity"}, {"measurement": "sensitivity to PARP1 inhibitor ABT-888 (clonogenic survival)", "setting": "MDA-MB231 cells [3]", "result": "sensitize MDA-MB231 cells to PARP1 inhibition"}, {"measurement": "sensitivity to PARP1 inhibitor ANI (clonogenic survival)", "setting": "MDA-MB231 cells [3]", "result": "sensitize MDA-MB231 cells to PARP1 inhibition"}, {"measurement": "sensitivity to PARP1 inhibitor ABT-888 (clonogenic survival)", "setting": "MDA-MB231 cells [3]; listed as 182 mimic", "result": "impacts sensitivity to PARP1 inhibitor ABT-888"}, {"measurement": "sensitivity to PARP1 inhibitor ANI (clonogenic survival)", "setting": "MDA-MB231 cells [3]; listed as miR-182 mimic", "result": "significantly enhanced sensitivity to ANI"}]}
